Key:
Experiment in all cases: LanthaScreen Binding - Eu-anti-GST
BRAF = target: T1, BRAF (Homo sapiens, UniProt P15056); details: read-out: Percentage of inhibition
T1 construct: purchased Life Technologies (SelectScreen Whole Panel)
How it was run: (§1)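 A kinome-wide single-concentration screen (1 μM) supplied these numbers, given as percent inhibition.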

EPHA6 = EPHA6 (Homo sapiens, UniProt Q9UF33); details: read-out: Percentage of inhibition
How it was run: as §1

TEK (TIE2) R849W = target: T2, TEK (TIE2) R849W (Homo sapiens, UniProt Q02763, R849W); details: read-out: Percentage of inhibition
T2 construct: purchased Life Technologies (SelectScreen Whole Panel service)
How it was run: as §1

STK17A (DRAK1) = target: T3, STK17A (DRAK1) (Homo sapiens, UniProt Q9UEE5); details: read-out: Percentage of inhibition
T3 construct: purchased Life Technologies
How it was run: as §1

ABL1 H396P = ABL1 H396P (Homo sapiens, UniProt P00519, H396P); details: read-out: Percentage of inhibition
How it was run: as §1

PRKACG (PRKAC gamma) = target: T4, PRKACG (PRKAC gamma) (Homo sapiens, UniProt P22612); details: read-out: Percentage of inhibition
T4 construct: purchased Life Technologies (SelectScreen Whole Panel service)
How it was run: as §1

KIT D816V = target: T5, KIT D816V (Homo sapiens, UniProt P10721, D816V); details: read-out: Percentage of inhibition
T5 construct: purchased Life Technologies (SelectScreen service)
How it was run: as §1

BRSK2 = target: T6, BRSK2 (Homo sapiens, UniProt Q8IWQ3); details: read-out: Percentage of inhibition
T6 construct: purchased Life Technologies (SelectScreen Whole Panel service)
How it was run: as §1

STK32C (YANK3) = target: T7, STK32C (YANK3) (Homo sapiens, UniProt Q86UX6); details: read-out: Percentage of inhibition
T7 construct: purchased Life Technologies (SelectScreen Whole Panel)
How it was run: as §1

ERN2 = target: T8, ERN2 (Homo sapiens, UniProt Q76MJ5); details: read-out: Percentage of inhibition
T8 construct: purchased Life Technologies (SelectScreen)
How it was run: as §1

MAP2K5 (MEK5) = target: T9, MAP2K5 (MEK5) (Homo sapiens, UniProt Q13163); details: read-out: Percentage of inhibition
T9 construct: purchased Life Technologies (SelectScreen service)
How it was run: as §1

STK17B (DRAK2) = target: T10, STK17B (DRAK2) (Homo sapiens, UniProt O94768); details: ATP Km, read-out: Percentage of inhibition
T10 construct: purchased Life Technologies
How it was run: as §1

FYN A = target: T11, FYN A (Homo sapiens, UniProt P06241); details: read-out: Percentage of inhibition
T11 construct: purchased Life Technologies (SelectScreen Whole Panel service)
How it was run: as §1

GAK = target: T12, GAK (Homo sapiens, UniProt O14976); details: read-out: Percentage of inhibition
T12 construct: purchased Life Technologies (SelectScreen service)
How it was run: as §1

DYRK2 = target: T13, DYRK2 (Homo sapiens, UniProt Q92630); details: read-out: Percentage of inhibition
T13 construct: purchased Life Technologies
How it was run: as §1

CAMKK2 (CaMKK beta) = target: T14, CAMKK2 (CaMKK beta) (Homo sapiens, UniProt Q96RR4); details: read-out: Percentage of inhibition
T14 construct: purchased Life Technologies (SelectScreen Whole Panel service)
How it was run: as §1

MAP2K4 (MEK4) = target: T15, MAP2K4 (MEK4) (Homo sapiens, UniProt P45985); details: read-out: Percentage of inhibition
T15 construct: purchased Life Technologies (SelectScreen service)
How it was run: as §1

CDK13/cyclin K = target: T16, CDK13/cyclin K (Homo sapiens, UniProt Q14004); details: read-out: Percentage of inhibition
T16 construct: purchased Life Technologies (SelectScreen Whole Panel service)
How it was run: as §1

STK38 (NDR) = target: T17, STK38 (NDR) (Homo sapiens, UniProt Q15208); details: read-out: Percentage of inhibition
T17 construct: purchased Life Technologies (SelectScreen Whole Panel service)
How it was run: as §1

ANKK1 = target: T18, ANKK1 (Homo sapiens, UniProt Q8NFD2); details: read-out: Percentage of inhibition
T18 construct: purchased Life Technologies (SelectScreen service)
How it was run: as §1

MAPK10 (JNK3) = target: T19, MAPK10 (JNK3) (Homo sapiens, UniProt P53779); details: read-out: Percentage of inhibition
T19 construct: purchased Life Technologies
How it was run: as §1

DDR1 = target: T20, DDR1 (Homo sapiens, UniProt Q08345); details: read-out: Percentage of inhibition
T20 construct: purchased Life Technologies
How it was run: as §1

KIT A829P = target: T21, KIT A829P (Homo sapiens, UniProt P10721, A829P); details: read-out: Percentage of inhibition
T21 construct: purchased Life Technologies (SelectScreen service)
How it was run: as §1

TNIK = TNIK (Homo sapiens, UniProt Q9UKE5); details: read-out: Percentage of inhibition
How it was run: as §1

SLK = target: T22, SLK (Homo sapiens, UniProt Q9H2G2); details: read-out: Percentage of inhibition
T22 construct: purchased Life Technologies
How it was run: as §1

MAP3K10 (MLK2) = MAP3K10 (MLK2) (Homo sapiens, UniProt Q02779); details: read-out: Percentage of inhibition
How it was run: as §1

ULK1 = target: T23, ULK1 (Homo sapiens, UniProt O75385); details: read-out: Percentage of inhibition
T23 construct: purchased Life Technologies
How it was run: as §1

TLK2 = target: T24, TLK2 (Homo sapiens, UniProt Q86UE8); details: read-out: Percentage of inhibition
T24 construct: purchased Life Technologies (SelectScreen service)
How it was run: as §1

TESK2 = target: T25, TESK2 (Homo sapiens, UniProt Q96S53); details: read-out: Percentage of inhibition
T25 construct: purchased Life Technologies
How it was run: as §1

EPHA7 = target: T26, EPHA7 (Homo sapiens, UniProt Q15375); details: read-out: Percentage of inhibition
T26 construct: purchased Life Technologies (SelectScreen service)
How it was run: as §1

TGFBR1 (ALK5) = target: T27, TGFBR1 (ALK5) (Homo sapiens, UniProt P36897); details: read-out: Percentage of inhibition
T27 construct: purchased Life Technologies (SelectScreen Whole Panel service)
How it was run: as §1

ACVR2B = ACVR2B (Homo sapiens, UniProt Q13705); details: read-out: Percentage of inhibition
How it was run: as §1

ABL1 M351T = ABL1 M351T (Homo sapiens, UniProt P00519, M351T); details: read-out: Percentage of inhibition
How it was run: as §1

TNK2 (ACK) = TNK2 (ACK) (Homo sapiens, UniProt Q07912); details: read-out: Percentage of inhibition
How it was run: as §1

EGFR (ErbB1) d746-750 = target: T28, EGFR (ErbB1) d746-750 (Homo sapiens, UniProt P00533, DEL746-750); details: read-out: Percentage of inhibition
T28 construct: purchased Life Technologies
How it was run: as §1

[1] = target: T29, EGFR (ErbB1) d747-749 A750P (Homo sapiens, UniProt P00533, A750P/DEL747-749); details: read-out: Percentage of inhibition
T29 construct: purchased Life Technologies
How it was run: as §1

BMPR1B (ALK6) = target: T30, BMPR1B (ALK6) (Homo sapiens, UniProt O00238); details: read-out: Percentage of inhibition
T30 construct: purchased Life Technologies (SelectScreen)
How it was run: as §1

CDK5 (Inactive) = CDK5 (Inactive) (Homo sapiens, UniProt Q00535); details: read-out: Percentage of inhibition
How it was run: as §1

ZAK = target: T31, ZAK (Homo sapiens, UniProt Q9NYL2); details: read-out: Percentage of inhibition
T31 construct: purchased Life Technologies
How it was run: as §1

T6 sequence (Q8IWQ3 whole entry): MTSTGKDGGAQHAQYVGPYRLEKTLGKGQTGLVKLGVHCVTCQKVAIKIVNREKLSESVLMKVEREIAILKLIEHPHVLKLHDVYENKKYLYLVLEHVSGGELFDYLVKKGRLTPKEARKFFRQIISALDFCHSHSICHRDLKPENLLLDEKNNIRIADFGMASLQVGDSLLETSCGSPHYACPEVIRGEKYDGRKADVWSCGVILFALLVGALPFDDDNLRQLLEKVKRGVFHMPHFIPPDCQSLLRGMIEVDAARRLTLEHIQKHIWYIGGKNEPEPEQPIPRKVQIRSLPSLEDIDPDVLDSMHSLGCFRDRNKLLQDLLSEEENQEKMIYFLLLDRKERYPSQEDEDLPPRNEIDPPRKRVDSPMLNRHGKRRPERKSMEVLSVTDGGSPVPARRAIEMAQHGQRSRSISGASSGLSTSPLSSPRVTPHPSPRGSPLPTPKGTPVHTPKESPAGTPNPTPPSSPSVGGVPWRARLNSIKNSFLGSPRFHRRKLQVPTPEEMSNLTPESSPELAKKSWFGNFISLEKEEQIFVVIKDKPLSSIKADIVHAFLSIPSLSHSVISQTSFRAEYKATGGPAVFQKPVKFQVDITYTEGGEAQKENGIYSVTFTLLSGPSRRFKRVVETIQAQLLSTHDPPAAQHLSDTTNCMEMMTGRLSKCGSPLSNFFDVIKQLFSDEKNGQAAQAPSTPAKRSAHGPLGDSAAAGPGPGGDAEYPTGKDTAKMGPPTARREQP
T11 sequence (P06241 whole entry): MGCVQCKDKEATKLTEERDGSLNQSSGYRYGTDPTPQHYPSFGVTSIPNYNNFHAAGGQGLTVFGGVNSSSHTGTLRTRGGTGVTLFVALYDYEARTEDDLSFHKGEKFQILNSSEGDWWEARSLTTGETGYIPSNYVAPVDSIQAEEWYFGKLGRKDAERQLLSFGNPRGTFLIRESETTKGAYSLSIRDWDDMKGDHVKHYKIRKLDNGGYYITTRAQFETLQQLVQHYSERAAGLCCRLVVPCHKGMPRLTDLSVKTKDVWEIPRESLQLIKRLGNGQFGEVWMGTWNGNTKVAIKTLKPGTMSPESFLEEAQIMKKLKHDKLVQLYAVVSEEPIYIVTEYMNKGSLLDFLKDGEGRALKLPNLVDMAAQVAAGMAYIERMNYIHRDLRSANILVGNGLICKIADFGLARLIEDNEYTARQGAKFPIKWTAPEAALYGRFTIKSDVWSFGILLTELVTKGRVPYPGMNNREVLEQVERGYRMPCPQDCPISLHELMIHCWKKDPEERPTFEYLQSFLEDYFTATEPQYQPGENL
T31 sequence (Q9NYL2 whole entry): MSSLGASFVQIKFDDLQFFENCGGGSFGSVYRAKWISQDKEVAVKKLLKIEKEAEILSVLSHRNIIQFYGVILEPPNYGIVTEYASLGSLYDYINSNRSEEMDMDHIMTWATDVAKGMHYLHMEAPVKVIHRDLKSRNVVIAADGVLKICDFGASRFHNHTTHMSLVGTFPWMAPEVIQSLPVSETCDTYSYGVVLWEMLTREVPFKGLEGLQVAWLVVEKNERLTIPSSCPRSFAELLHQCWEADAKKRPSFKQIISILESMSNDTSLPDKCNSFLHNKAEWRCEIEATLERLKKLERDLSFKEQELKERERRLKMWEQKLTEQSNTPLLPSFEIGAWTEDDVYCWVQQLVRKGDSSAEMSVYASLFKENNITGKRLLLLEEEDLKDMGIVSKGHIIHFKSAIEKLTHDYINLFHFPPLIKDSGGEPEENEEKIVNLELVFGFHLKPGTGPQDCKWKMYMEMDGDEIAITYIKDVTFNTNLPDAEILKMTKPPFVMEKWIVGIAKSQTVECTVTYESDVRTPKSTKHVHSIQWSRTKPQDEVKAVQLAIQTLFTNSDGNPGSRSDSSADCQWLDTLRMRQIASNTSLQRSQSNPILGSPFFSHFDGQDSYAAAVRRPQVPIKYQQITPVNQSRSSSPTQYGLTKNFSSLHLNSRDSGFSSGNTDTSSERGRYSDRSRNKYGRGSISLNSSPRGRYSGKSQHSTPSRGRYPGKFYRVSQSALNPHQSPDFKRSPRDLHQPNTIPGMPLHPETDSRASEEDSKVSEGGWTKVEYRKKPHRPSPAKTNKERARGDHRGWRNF
T22 sequence (Q9H2G2 whole entry): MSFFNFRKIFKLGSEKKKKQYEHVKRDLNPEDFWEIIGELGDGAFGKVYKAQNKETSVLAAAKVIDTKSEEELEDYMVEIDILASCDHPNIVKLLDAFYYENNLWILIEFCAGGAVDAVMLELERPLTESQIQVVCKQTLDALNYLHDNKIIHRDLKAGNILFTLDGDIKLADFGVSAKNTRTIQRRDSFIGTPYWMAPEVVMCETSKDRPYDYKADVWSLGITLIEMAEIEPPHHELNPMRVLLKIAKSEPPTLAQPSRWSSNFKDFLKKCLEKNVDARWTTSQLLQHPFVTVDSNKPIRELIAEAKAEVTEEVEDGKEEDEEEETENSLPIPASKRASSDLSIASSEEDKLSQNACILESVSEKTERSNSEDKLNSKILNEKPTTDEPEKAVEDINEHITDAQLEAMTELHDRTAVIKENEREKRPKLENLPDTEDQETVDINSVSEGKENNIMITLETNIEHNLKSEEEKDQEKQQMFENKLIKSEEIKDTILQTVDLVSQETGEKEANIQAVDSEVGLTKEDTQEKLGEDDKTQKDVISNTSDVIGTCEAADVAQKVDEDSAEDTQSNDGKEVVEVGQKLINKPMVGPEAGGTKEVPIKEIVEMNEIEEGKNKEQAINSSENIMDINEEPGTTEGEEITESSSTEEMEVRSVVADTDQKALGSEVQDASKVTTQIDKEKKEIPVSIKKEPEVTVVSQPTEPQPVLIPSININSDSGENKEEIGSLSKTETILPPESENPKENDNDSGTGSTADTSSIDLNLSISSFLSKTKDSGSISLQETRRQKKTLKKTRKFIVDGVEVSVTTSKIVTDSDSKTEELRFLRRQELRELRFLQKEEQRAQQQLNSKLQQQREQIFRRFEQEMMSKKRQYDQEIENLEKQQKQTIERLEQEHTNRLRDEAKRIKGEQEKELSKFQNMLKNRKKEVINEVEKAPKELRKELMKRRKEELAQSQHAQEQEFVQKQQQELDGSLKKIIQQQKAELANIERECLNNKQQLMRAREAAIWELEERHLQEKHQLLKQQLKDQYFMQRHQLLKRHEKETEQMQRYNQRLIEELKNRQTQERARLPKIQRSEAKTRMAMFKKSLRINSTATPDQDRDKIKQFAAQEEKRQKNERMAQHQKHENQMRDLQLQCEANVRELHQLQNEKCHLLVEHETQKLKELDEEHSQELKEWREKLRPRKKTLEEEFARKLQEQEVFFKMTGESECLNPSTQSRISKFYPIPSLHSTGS
T13 sequence (Q92630 whole entry): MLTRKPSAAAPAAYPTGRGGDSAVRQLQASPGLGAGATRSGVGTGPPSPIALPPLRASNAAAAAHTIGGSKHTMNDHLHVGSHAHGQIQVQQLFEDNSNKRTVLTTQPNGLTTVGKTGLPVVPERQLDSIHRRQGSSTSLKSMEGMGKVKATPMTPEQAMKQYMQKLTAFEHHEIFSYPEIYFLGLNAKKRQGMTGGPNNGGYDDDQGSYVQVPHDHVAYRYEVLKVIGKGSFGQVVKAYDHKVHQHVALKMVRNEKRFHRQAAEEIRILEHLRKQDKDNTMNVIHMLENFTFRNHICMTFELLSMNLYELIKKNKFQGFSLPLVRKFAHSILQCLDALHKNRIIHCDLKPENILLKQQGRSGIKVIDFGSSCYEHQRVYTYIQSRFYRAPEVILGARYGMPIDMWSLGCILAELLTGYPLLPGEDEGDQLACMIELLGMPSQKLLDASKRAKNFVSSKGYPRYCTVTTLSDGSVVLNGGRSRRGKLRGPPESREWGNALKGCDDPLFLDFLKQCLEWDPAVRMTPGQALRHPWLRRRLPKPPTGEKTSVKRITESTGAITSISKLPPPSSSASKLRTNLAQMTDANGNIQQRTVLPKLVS
T20 sequence (Q08345 19-913): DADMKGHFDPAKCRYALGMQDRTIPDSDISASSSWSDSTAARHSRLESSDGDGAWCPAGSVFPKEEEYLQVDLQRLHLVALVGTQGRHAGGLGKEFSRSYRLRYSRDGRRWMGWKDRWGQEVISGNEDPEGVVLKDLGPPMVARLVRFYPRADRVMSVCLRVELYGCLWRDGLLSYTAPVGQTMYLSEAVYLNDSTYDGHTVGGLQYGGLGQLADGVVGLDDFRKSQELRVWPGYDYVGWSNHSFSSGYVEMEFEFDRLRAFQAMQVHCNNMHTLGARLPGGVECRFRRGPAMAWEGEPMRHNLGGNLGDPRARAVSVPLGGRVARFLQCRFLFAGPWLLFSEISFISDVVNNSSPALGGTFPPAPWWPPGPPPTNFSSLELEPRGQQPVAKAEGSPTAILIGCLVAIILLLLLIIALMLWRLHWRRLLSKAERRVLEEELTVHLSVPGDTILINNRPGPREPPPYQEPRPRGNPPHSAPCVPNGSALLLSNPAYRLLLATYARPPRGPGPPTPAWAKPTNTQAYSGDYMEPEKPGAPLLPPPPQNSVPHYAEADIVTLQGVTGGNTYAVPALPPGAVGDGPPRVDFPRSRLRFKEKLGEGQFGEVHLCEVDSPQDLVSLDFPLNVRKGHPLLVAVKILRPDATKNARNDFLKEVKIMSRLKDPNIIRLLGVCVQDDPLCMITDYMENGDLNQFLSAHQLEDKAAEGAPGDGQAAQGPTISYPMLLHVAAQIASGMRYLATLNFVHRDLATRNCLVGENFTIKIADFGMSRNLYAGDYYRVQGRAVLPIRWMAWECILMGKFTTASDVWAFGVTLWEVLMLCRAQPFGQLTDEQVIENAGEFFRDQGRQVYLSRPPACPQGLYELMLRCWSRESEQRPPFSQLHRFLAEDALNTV

COc1ccc2[nH]c3c(=O)[nH]c4ccc(O)cc4c3c2c1 [Compound 55, 2-Hydroxy-10-methoxy-5,7-dihydro-6H-indolo[2,3-c]quinolin-6-one] was tested, and the inhibition at 1 µM (BRAF) was 6%, the inhibition at 1 µM (EPHA6) was 21% and the inhibition at 1 µM (TEK (TIE2) R849W) was 11%. For the same molecule, the inhibition at 1 µM (STK17A (DRAK1)) was 95%, the inhibition at 1 µM (ABL1 H396P) was 61% and the inhibition at 1 µM (PRKACG (PRKAC gamma)) was 17%. It also gave an inhibition at 1 µM (KIT D816V) of 77%, an inhibition at 1 µM (BRSK2) of 15% and an inhibition at 1 µM (STK32C (YANK3)) of 1%. It also gave an inhibition at 1 µM (ERN2) of 8%, an inhibition at 1 µM (MAP2K5 (MEK5)) of 80% and an inhibition at 1 µM (STK17B (DRAK2)) of 93%. The inhibition at 1 µM (FYN A) was 45%, the inhibition at 1 µM (GAK) was 90% and the inhibition at 1 µM (DYRK2) was 97%. The inhibition at 1 µM (CAMKK2 (CaMKK beta)) was 10%, the inhibition at 1 µM (MAP2K4 (MEK4)) was 26% and the inhibition at 1 µM (CDK13/cyclin K) was 17%. The inhibition at 1 µM (STK38 (NDR)) was 12%, the inhibition at 1 µM (ANKK1) was 90% and the inhibition at 1 µM (MAPK10 (JNK3)) was 29%. For the same molecule, the inhibition at 1 µM (DDR1) was 5%, the inhibition at 1 µM (KIT A829P) was 76% and the inhibition at 1 µM (TNIK) was 61%. For the same molecule, the inhibition at 1 µM (SLK) was 40%, the inhibition at 1 µM (MAP3K10 (MLK2)) was 20% and the inhibition at 1 µM (ULK1) was 31%. The inhibition at 1 µM (TLK2) was 88%, the inhibition at 1 µM (TESK2) was 3% and the inhibition at 1 µM (EPHA7) was 23%. It also gave an inhibition at 1 µM (TGFBR1 (ALK5)) of 10%, an inhibition at 1 µM (ACVR2B) of 21% and an inhibition at 1 µM (ABL1 M351T) of 60%. It also gave an inhibition at 1 µM (TNK2 (ACK)) of 15%, an inhibition at 1 µM (EGFR (ErbB1) d746-750) of 34% and an inhibition at 1 µM [1] of 34%. It also gave an inhibition at 1 µM (BMPR1B (ALK6)) of 8%, an inhibition at 1 µM (CDK5 (Inactive)) of 21% and an inhibition at 1 µM (ZAK) of 4%.

Reference: article PMC9186362, “Design and biological evaluation of substituted 5,7-dihydro-6H-indolo[2,3-c]quinolin-6-one as novel selective Haspin inhibitors” (Journal of Enzyme Inhibition and Medicinal Chemistry, 2022)
